Assay results reported in PMC4821887, “Identification of chemicals that mimic transcriptional changes associated with autism, brain aging and neurodegeneration” (Nature Communications, 2016).
Entries after “also recorded” stand apart in the source; their conditions may differ. Counter-ions that a name gives are not always drawn. Like-named read-outs stand apart in the source and are kept apart here.

Tests used:
[1] = test system: mouse cortical neuron-enriched cultures; experiment: RNA-seq transcriptional screen with hierarchical clustering and cluster membership; format: cell-based; settings: for Chemical cluster assigned by gene expression: 24 h at non-toxic concentration, hierarchical clustering of 5,121 variably expressed genes; for Transcriptional change relative to the cluster 2 signature: RNA-seq, Supplementary Fig. 9
Procedure: (§1) Cultures were treated with the non-cytotoxic dose of each chemical, by exchanging half of the original medium with chemicals at 2 × concentration in prewarmed feeding medium, on DIV 7 for 24 h in 12-well plates at a density of 5 × 10^5 cells per well. RNA was isolated using RNeasy plus mini kit (Cat. #74134, Qiagen). RNA yield and quality were determined using a Nanodrop 1000 Spectrophotometer (Thermo Scientific). Samples were further assessed for quality using either an Agilent Bioanalyzer 2100 or TapeStation 2200 to obtain a RIN. RIN values exceeding 7 were used for sequencing. RNA samples were used to generate and barcode complementary DNA libraries using the TruSeq RNA Library Preparation Kit at the UNC High Throughput Sequencing Facility. Pools of 24 multiplexed samples were sequenced per lane on an Illumina HiSeq 2500 using 50-bp paired-end reads.
(§2) RNA-seq reads were filtered using TagDust and aligned to the reference mouse genome (mm9) with TopHat using default parameters. Reads aligning to ribosomal RNA genes were removed. Transcript abundance was estimated by computing Reads per kilobase per million mapped reads (RPKM) using RefSeq gene models aggregated by gene symbol. For differential expression analyses, raw counts over RefSeq exons were used, and then were compared across samples using DESeq[62].
RPKMs for all RefSeq genes and all samples were filtered such that a given gene had >90% of samples with RPKM >0 and gene length exceeded 500 bp. RPKMs were then log10-transformed, quantile-normalized, median-centred, and the effects due to culture or sequencing batch were removed using a mixed model analysis of variance. This batch correction step was performed on individual experiments rather than chemical–vehicle ratios to reduce the effects due to variations in culture composition as well as batch-to-batch variations at the level of sequencing. Genes were then median-centred again, and filtered such that their s.d. exceeded 0.1. Chemical replicates were then combined using the median. Classes of chemicals were then discovered in two ways. First, we performed hierarchical clustering using average linkage and Pearson correlation distance measures. The boundaries of the discovered classes from clustering were set by computing pairwise Spearman correlations for all samples. A given cluster had to have at least three members with the minimum pairwise Spearman correlation coefficient exceeding 0.2, though cluster members often exceeded a correlation of 0.6 (Supplementary Fig. 5c,d). Seven chemical clusters were discovered, however one was removed due to failing to have a positive silhouette width, a metric of cluster robustness. These definitions enabled the three positive control topoisomerase inhibitors to form a cohesive group of chemicals with known structural and functional similarity (cluster 5). None of the culture or sequencing batches contributed to the formation of any one of the final six clusters (Supplementary Fig. 4).

[2] = test system: mitochondrial superoxide in cortical neurons; experiment: Mitochondrial superoxide detection (MitoSOX Red live-cell imaging); format: cell-based, mouse; settings: for O2− production at the sequencing concentration: seven-point concentration-response, Supplementary Fig. 8; for Effect of pretreatment on fenamidone-induced O2− production: fenamidone 10 μM, 2 h; for Mitochondrial superoxide (O2−) production: 2 h treatment, MitoSOX, vincristine 500 µM in Supplementary Fig. 10b
[3] = test system: cortical neurons; experiment: Soma morphology (proportion of cells with altered soma morphology) in live-cell imaging; format: cell-based, mouse; settings: for Effect of pretreatment on fenamidone-induced soma swelling / aberrant morphology: fenamidone 10 μM, 2 h; for Soma swelling / aberrant cell morphology: 2 h treatment, vincristine 500 µM in Supplementary Fig. 10c
[4] = test system: humans; settings: cited from earlier work
[5] = test system: cortical neuron cultures; parameters: method as in PMID 25404338; settings: cited from earlier work
[6] = test system: mouse cortical neuron cultures
[7] = test system: purified tubulin; experiment: Tubulin polymerization assay (cell-free, BK011P); format: biochemical; settings: 37 °C, fluorescence over 60 min, equimolar doses
[8] = test system: microtubules; settings: cited from earlier work
[9] = test system: cortical neurons; parameters: method as in PMID 20881019; settings: cited from earlier work
[10] = test system: rats; settings: lowest dose tested; cited from earlier work
[11] = cited from earlier work
[12] = test system: mouse cortical cultures; experiment: RNA-seq differential expression (DESeq) against matched vehicle; format: cell-based; settings: 24 h
Procedure: Figure 4 Cluster 2 chemicals alter expression of a common set of genes. […] RNA-seq was performed in quadruplicate after treating cortical cultures with fenamidone (10 μM) or pyraclostrobin (0.1 μM) for 24 h (n=3 biological replicates) and compared with matched vehicle controls using DESeq to detect differentially expressed genes, listed in Supplementary Data 4.
as §1, with “[…].” for “RNA yield and quality were determined using a Nanodrop 1000 Spectrophotometer (Thermo Scientific).”
as §2

[13] = pretreatment 18 h, two concentrations

Q: For `CC(C)(C)c1ccc(CSc2cnn(C(C)(C)C)c(=O)c2Cl)cc1` [pyridaben], which “Chemical cluster assigned by gene expression” value (“Chemical cluster assigned” below) [1] is on record?
A: Its value is “cluster 2”.

Q: What does the source list for `CO/C=C(/C(=O)OC)c1ccccc1Oc1cc(Oc2ccccc2C#N)ncn1` [azoxystrobin]?
A: Chemical cluster assigned by gene expression [1]: not assigned to cluster 2; O2− production at the sequencing concentration [2]: did not generate

Q: For `C[S+]([O-])CCCCN=C=S` (racemic) [sulforaphane, DL-sulforophane], which “Effect of pretreatment on fenamidone-induced transcriptional changes (RNA-seq)” value ([1]; pretreatment 10 μM, 18 h, fenamidone 10 μM, 24 h) is on record?
A: The value was “attenuated”.

Q: What about the “Effect of pretreatment on fenamidone-induced soma swelling / aberrant morphology” value [3, 13] of the same compound?
A: The value was “attenuated”.

Q: What about the Autism symptoms [4] of the same compound?
A: Its Autism symptoms is “substantially reduces autism symptoms”.

Q: And the “Effect of pretreatment on fenamidone-induced O2− production” value [2, 13]?
A: The value was “attenuated”.

Q: With `CC[C@@]1(O)C(=O)OCc2c1cc1n(c2=O)Cc2cc3c(CN(C)C)c(O)ccc3nc2-1` [topotecan, Topotecan hydrochloride, reference compound] as the compound, how does the “Chemical cluster assigned” value [1] read?
A: The value was “Cluster 5”.

Q: And the Spontaneous synaptic activity [5]?
A: The Spontaneous synaptic activity was “reducing spontaneous synaptic activity”.

Q: Which results are given for `Cc1nn(C)c(Oc2ccccc2)c1C=NOCc1ccc(C(=O)OC(C)(C)C)cc1` [fenpyroximate]?
A: Chemical cluster assigned by gene expression [1]: cluster 2; EC50 ([2]; Mus musculus, Cortical neurone, read-out: Superoxide production, concentration for half-maximum response (EC50)): 7 nM

Q: Which “Chemical cluster assigned” value [1] does the source give for `C[C@@]1(c2ccc(Oc3ccccc3)cc2)OC(=O)N(Nc2ccccc2)C1=O` (racemic) [famoxadone] here?
A: Its value is “cluster 2”.

Q: What about the “% Dead cells (vehicle subtracted)” value [6] of the same compound?
A: Its value is 1.213%.

Q: What does the source list for `CC[C@]1(O)C[C@H]2CN(CCc3c([nH]c4ccccc34)[C@@](C(=O)OC)(c3cc4c(cc3OC)N(C=O)[C@H]3[C@@](O)(C(=O)OC)[C@H](OC(C)=O)[C@]5(CC)C=CCN6CC[C@]43[C@@H]65)C2)C1` [vincristine, vincristine sulfate salt]?
A: Effect on tubulin polymerization [7]: inhibited; Soma swelling / aberrant cell morphology [3]: phenocopied; Soma swelling / aberrant cell morphology ([3]; listed as Vincristine): altered cell morphology; also recorded: dose-dependent; Mitochondrial superoxide (O2−) production [2]: phenocopied; Mitochondrial superoxide (O2−) production ([2]; listed as Vincristine): induced; also recorded: dose-dependent

Q: For `C=C(C)[C@H]1Cc2c(ccc3c2O[C@@H]2COc4cc(OC)c(OC)cc4[C@@H]2C3=O)O1` [rotenone], which “Chemical cluster assigned” value [1] is on record?
A: The value was “cluster 2”.

Q: And the Effect on microtubules [8]?
A: The Effect on microtubules was “destabilizes microtubules”.

Q: What about the “Non-cytotoxic concentration identified with live/dead assay” value [6] of the same compound?
A: The value was 0.01 µM.

Q: Which “Transcriptional change relative to the cluster 2 signature” value [1] does the source give for `CO/N=C(/C(=O)OC)c1ccccc1COc1ccccc1C` [kresoxim-methyl] here?
A: Its value is “altered transcription in a manner consistent with chemicals in cluster 2”.

Q: What does the source list for `CC(=O)O[C@H]1C(=O)[C@@]2(C)[C@H]([C@H](OC(=O)c3ccccc3)[C@]3(O)C[C@H](OC(=O)[C@H](O)[C@@H](NC(=O)c4ccccc4)c4ccccc4)C(C)=C1C3(C)C)[C@]1(OC(C)=O)CO[C@@H]1C[C@@H]2O` [paclitaxel, Paclitaxel]?
A: Effect on tubulin polymerization [7]: promoted; Effect of pretreatment on fenamidone-induced soma swelling / aberrant morphology ([3]; pretreatment 10 μM): attenuated; Effect of pretreatment on fenamidone-induced O2− production ([2]; pretreatment 10 μM): attenuated

Q: Which “Calcium influx in cortical neurons” value [9] does the source give for `CC1(C)C(C(=O)OC(C#N)c2cccc(Oc3ccccc3)c2)C1(C)C` (stereo not shown) [fenpropathrin] here?
A: The value was “stimulate sustained calcium influx”.

Q: What about the “Chemical cluster assigned” value [1] of the same compound?
A: The value was “cluster 1”.

Q: Which “Chemical cluster assigned” value [1] does the source give for `CON=C(C(=O)OC)c1ccccc1CON=C(C)c1cccc(C(F)(F)F)c1` [trifloxystrobin] here?
A: The value was “cluster 2”.

Q: And the “% Dead cells (vehicle subtracted)” value ([6]; mouse, 24 h, 10 µM)?
A: Its value is 7.404%.

Q: Which results are given for `CO/N=C(/C1=NOCCO1)c1ccccc1Oc1ncnc(Oc2ccccc2Cl)c1F` [Fluoxastrobin, fluoxastrobin]?
A: Chemical cluster assigned by gene expression [1]: not assigned to cluster 2; O2− production at the sequencing concentration [2]: did not generate

Q: For `CO/C=C(/C(=O)OC)c1ccccc1COc1cccc(C(F)(F)F)n1` [Picoxystrobin], which “Acute neurotoxicity (motor activity)” value [10] is on record?
A: The value was “caused acute neurotoxicity (reduced motor activity) at the lowest dose tested”.

Q: For `COC(=O)N(OC)c1ccccc1COc1ccn(-c2ccc(Cl)cc2)n1` [pyraclostrobin], which “Chemical cluster assigned” value [1] is on record?
A: The value was “cluster 2”.

Q: And the “Neurotoxicity in a set of assays used by regulatory agencies” value [11]?
A: Its value is “No evidence of neurotoxicity”.

Q: And the “log2FoldChange, gene Acta2” value ([12]; 0.1 μM, vs vehicle, DESeq)?
A: The value was 3.944.

Q: What about the “log2FoldChange, gene Gpnmb” value ([12]; 0.1 μM, vs vehicle, DESeq) of the same compound?
A: The value was 3.288.

Q: And the “log2FoldChange, gene Hspg2” value ([12]; 0.1 μM, vs vehicle, DESeq)?
A: Its value is 3.427.

Q: And the “log2FoldChange, gene Tagln” value ([12]; 0.1 μM, vs vehicle, DESeq)?
A: Its value is 3.548.

Q: And the “log2FoldChange, gene Thbs1” value ([12]; 0.1 μM, vs vehicle, DESeq)?
A: Its value is 3.263.

Q: What about the “Differentially expressed genes (DESeq) compared between the two fungicides” value ([12]; fenamidone 10 μM or pyraclostrobin 0.1 μM) of the same compound?
A: The value was “up- and downregulate a largely overlapping set of genes”.

Q: With `CO/C(=C/C(N)=O)[C@H](C)[C@H](/C=C/c1csc(-c2csc([C@@H](C)/C=C/C=C/C(C)C)n2)n1)OC` [myxothiazol, reference compound] as the compound, how does the “Transcriptional change relative to the cluster 2 signature” value [1] read?
A: Its value is “altered transcription in a manner consistent with chemicals in cluster 2”.

Q: With `CC1(C)C(C=C(Cl)Cl)C1C(=O)OC(C#N)c1ccc(F)c(Oc2ccccc2)c1` (stereo not shown) [cyfluthrin] as the compound, how does the “Calcium influx in cortical neurons” value [9] read?
A: The value was “stimulate sustained calcium influx”.

Q: And the “Chemical cluster assigned” value [1]?
A: The value was “cluster 1”.

Q: For `COCc1cnc(C2=NC(C)(C(C)C)C(=O)N2)c(C(=O)O)c1` (stereo not shown) [Imazamox], which “% Dead cells (vehicle subtracted)” value [6] is on record?
A: The value was -0.1553%.

Q: Which “% Dead cells (vehicle subtracted)” value ([6]; mouse, 24 h, 10 µM) does the source give for `CCC(C)(CC)c1cc(NC(=O)c2c(OC)cccc2OC)on1` [Isoxaben] here?
A: The value was -1.274%.

Q: With `CCSC(=O)N(CC)C1CCCCC1` [Cycloate] as the compound, how does the “% Dead cells (vehicle subtracted)” value ([6]; mouse, 24 h, 10 µM) read?
A: The value was 2.452%.

Q: For `CC(C)OC(=O)Nc1cccc(Cl)c1` [Chlorpropham], which “% Dead cells (vehicle subtracted)” value ([6]; mouse, 24 h, 10 µM) is on record?
A: The value was -1.179%.

Q: For `NCCO.O=C(O)c1nc(Cl)ccc1Cl` [Clopyralid-olamine], which “% Dead cells (vehicle subtracted)” value [6] is on record?
A: Its value is 0.5713%.

Q: For `Cc1cc(C)nc(Nc2ccccc2)n1` [Pyrimethanil], which “% Dead cells (vehicle subtracted)” value ([6]; mouse, 24 h, 10 µM) is on record?
A: Its value is -4.407%.

Q: With `COCCO` [Methyl cellosolve] as the compound, how does the “% Dead cells (vehicle subtracted)” value [6] read?
A: Its value is 2.2057%.

Q: Which “% Dead cells (vehicle subtracted)” value [6] does the source give for `N#CN` [Cyanamide] here?
A: The value was 0.2955%.

Q: For `CCN(CC)c1nc(C)cc(OP(=S)(OC)OC)n1` [Pirimiphos-methyl], which “% Dead cells (vehicle subtracted)” value [6] is on record?
A: The value was -0.1826%.

Q: With `O=C(O)CCCOc1ccc(Cl)cc1Cl` as the compound, how does the “% Dead cells (vehicle subtracted)” value [6] read?
A: Its value is -0.3394%.

Q: Which “% Dead cells (vehicle subtracted)” value ([6]; mouse, 24 h, 10 µM) does the source give for `CC(COc1ccc(Oc2ccccc2)cc1)Oc1ccccn1` (stereo not shown) [Pyriproxyfen] here?
A: Its value is 1.128%.

Q: For `O=C(O)COc1nc(Cl)c(Cl)cc1Cl` [Triclopyr], which “% Dead cells (vehicle subtracted)” value [6] is on record?
A: The value was -0.8572%.
